Reference: patent US20090286695A1, “LUMINESCENT STEM CELLS AND USES THEREOF” (AXXAM S.P.A., priority 2006, published 2009)

Key:
Type in all cases: cell-based, mouse
[1] = test system: Metabotropic or Ionotropic Glutamate Receptors; assay: FLIPR384 Fluo-4 NW calcium test on undifferentiated and neuron-differentiated P19/mito c-Photina/1A1 clone; conditions: 100 μM final; undifferentiated cells vs day 8 neurons; FIG. 23
Description: Concerning undifferentiated P19/mito c-Photina®/1A1 clone, 3000 cells/well were seeded in gelatin coated 384 well plates. 24 h after seeding the cells were incubated with 25 μl/well of Fluo-4 NW® calcium sensitive fluorescent dye in the dark.
Concerning neurons differentiated from P19/mito c-Photina®/1A1 clone, at day 8 of the neuronal differentiation protocol (4 days after seeding in poly D-lysine coated 384 well plates) cells were incubated with 25 μl/well of Fluo-4 NW® calcium sensitive fluorescent dye in the dark.
Both plates were incubated for 30 minutes at 37° C. and then for 30 minutes at room temperature.
12.5 μl/well of the following 3× compounds in tyrode buffer were injected, and the fluorescence signal was recorded for 330 sec and expressed as RFU.
The same experiment was in contemporary performed on undifferentiated P19/mito c-Photina® 1A1 clone (at 24 h after seeding of 3000 cells/well in 384 MTP, FIG. 23A).

[2] = test system: Voltage-gated Calcium Channels; assay: CCD camera-based luminometer test on neurons differentiated from P19/mito c-Photina/1A1 clone; conditions: 40 mM; differentiation day 8 and 11; 384 MTP; tyrode as control; FIG. 21
Description: At day 8 and day 11 of the neuronal differentiation protocol (respectively 4 and 7 days after seeding in poly D-lysine coated 384 MTP), neurons differentiated from P19/mito c-Photina®/1A1 clone were incubated with 25 μl/well of 10 μM coelenterazine in standard tyrode buffer, for 4 hrs at 37° C.
Response to a depolarizing stimulus induced by injection of 40 mM KCl was recorded at CCD camera-based luminometer (conditions: high sensitivity, reading time 60 seconds).
The functionality of these cells was also investigated at CCD camera-based luminometer. At differentiation day 8 and 11 (respectively 4 and 7 days after disaggregation of Embryoid Bodies and seeding on poly D-lysine in 384 MTP), the cells were incubated for 4 h with a tyrode solution containing 10 μM coelenterazine.

[3] = test system: neurons differentiated from P19/mito c-Photina/1A1 clone; assay: FLIPR384 Fluo-4 NW test on neurons differentiated from P19/mito c-Photina/1A1 clone; conditions: 40 mM, differentiation day 8, FIG. 22
Description: 12.5 μl/well of 120 mM KCl (3×) solution was injected, and the fluorescence signal was recorded for 360 sec and expressed as RFU (Relative Fluorescence Units).
At differentiation day 8 the same cells were analyzed also at FLIPR^384 incubating the cells with FLUO-4 NW® and injecting 40 mM KCl depolarizing agent.

[4] = test system: α1-Adrenergic Receptor; assay: CCD camera-based luminescent functional test on cardiomyocytes differentiated from ES/mito c-Photina/29 clone; conditions: 100 μM; 20,000 c/w in 96 MTP; 10 μM coelenterazine; high sens., 60 sec; FIG. 8A
[5] = test system: GqPCR Endothelin Receptors; assay: as above; conditions: 50 nM; 20,000 c/w in 96 MTP; 10 μM coelenterazine; high sens., 60 sec; FIG. 8A
Description: CCD-Camera Based Luminometer Measurements with Cardiomyocytes • EBs were dissociated at differentiation day 9 with Accutase™ (Chemicon, Cat. N. SCR005), counted and incubated (20000 cells/well in a 96 MTP) in 10 μM coelenterazine in standard tyrode buffer (for the test on GqPCRs) and in tyrode without KCl (for the test on L-type Calcium Channels) for 3 hrs at 37° C. • The tests were run 3 h after cell seeding. • The responses to 50 nM Endothelin-1, 100 μM Noraepinephrine were measured at the CCD camera-based luminometer (conditions: high sensitivity, reading time 60 seconds). • The Voltage gated Calcium Channels were stimulated with 40 mM KCl. The specificity of the channels was checked incubating the cells 15 minutes before he measurement with 5 μM Nifedipine (a specific L-type Voltage-gated Calcium Channel inhibitor) (SIGMA, Cat. N. N7634). • Residual total photoprotein activity was measured after Triton X-100 cell lysis at the CCD camera-based luminometer (conditions: high sensitivity, for 30 seconds). Neuronal Differentiation Protocol with the Embryoid Bodies (EBs) Formation Step
Preliminary functional tests were performed at the CCD camera-based luminometer instrument after Embryoid Bodies disaggregation with Accutase® buffer and resuspension in 10 μM coelenterazine tyrode buffer. The cells were counted and seeded at a cellular concentration of 20,000 c/w in a 96 MTP. […]

Compound: N[C@@H](CCC(=O)O)C(=O)O [Glutamate]
- fluorescence signal after stimulation, undifferentiated vs differentiated cells [1]: much higher in the differentiated cells than in the undifferentiated ones

Compound: [Cl-].[K+] [KCl]
- luminescence response to depolarizing stimulus [2]: optimal responses
- fluorescence signal (calcium entry) after depolarizing agent [3]: sensible increase of the signal

Compound: NC[C@H](O)c1ccc(O)c(O)c1 [Norephinephrine]
- luminescence response (calcium) to agonist [4]: strong

Compound: Endothelin-1
- luminescence response (calcium) to agonist [5]: strong
